# According to patent US20100317047A1, “Biomarkers of Hemorrhagic Shock” (THE GENERAL HOSPITAL CORPORATION, priority 2009, published 2010):
# How the values were obtained:
# 22.7 kDa protein = experiment: SELDI-TOF MS serum protein profiling in lethal hemorrhagic shock model; format: in vivo; settings: rat serum, 24 hours after VPA 300 mg/kg via femoral vein after hemorrhage; p<0.05 vs HS, n=5
# Experimental: (§1) An animal model of HS was used. Male Wistar-Kyoto rats (254.12±2.71 grams, Harlan, Indianapolis, Ind.) were used in the lethal model of hemorrhagic shock (Shults et al., J. Trauma. 2008; 64(3): 629-638). Each animal's estimated blood volume was calculated using the formula: [estimated blood volume (mL)=weight (g)×0.06 (mL/g)+0.77]. About 1.3 mL of blood was manually drawn at the beginning and end of hemorrhage for analysis (included in the total hemorrhage calculation). The animals were hemorrhaged (40% of their calculated total blood volume) via a femoral arterial catheter over 10 minutes, followed by a 20% blood volume venous bleed over the next 50 minutes. Bleeding was performed using Kent Scientific adjustable pumps (Kent Scientific Corporation, NJ). VPA (300 mg/kg) was administered via a femoral vein catheter after completion of hemorrhage. Blood pressure was monitored continuously during the experiment. The mean arterial pressure (MAP) in animals that were subjected to hemorrhage dropped sharply after bleeding to approximately 20 mm Hg. […]
# ProteinChip profiling was performed on CM10 ProteinChip arrays (Ciphergen Biosystems, Fremont Calif.), as recommended by the manufacturer. […] The arrays were then inserted into a ProteinChip (Enterprise edition) TOF-MS and read at an optimized laser setting of 2000 nJ-5000 nJ. […]
# claudin-3 [1] = experiment: iTRAQ quantification of serum claudin-3 peptide in hemorrhagic shock model; format: in vivo; settings: rat serum, 24 hours post-VPA treatment (300 mg/kg) vs post-hemorrhagic shock; BL to HS ratio 0.323
# Experimental: as §1
# Immunodepletion of serum abundant proteins was performed as follows. […] Column performance was monitored by sodium dodecyl sulphate-polyacrylamide gel electrophoresis (SDS-PAGE) followed by Coomassie Blue staining (BioBlue, BioRad). […]
# claudin-3 [2] = experiment: Western blot of serum claudin-3 in hemorrhagic shock model; format: in vivo; settings: rat serum, 1 hour following VPA treatment; HS 1 hour group showed ~23 kDa and ~11 kDa bands
# Experimental: An animal model of HS was used. Male Wistar-Kyoto rats (254.12±2.71 grams, Harlan, Indianapolis, Ind.) were used in the lethal model of hemorrhagic shock (Shults et al., J. Trauma. 2008; 64(3): 629-638). Each animal's estimated blood volume was calculated using the formula: [estimated blood volume (mL)=weight (g)×0.06 (mL/g)+0.77]. About 1.3 mL of blood was manually drawn at the beginning and end of hemorrhage for analysis (included in the total hemorrhage calculation). The animals were hemorrhaged (40% of their calculated total blood volume) via a femoral arterial catheter over 10 minutes, followed by a 20% blood volume venous bleed over the next 50 minutes. Bleeding was performed using Kent Scientific adjustable pumps (Kent Scientific Corporation, NJ). VPA (300 mg/kg) was administered via a femoral vein catheter after completion of hemorrhage. Blood pressure was monitored continuously during the experiment. […]
# To assess whether claudin-3 is a potential biomarker, independent serum samples were taken of sham (no hemorrhage and no treatment), HS 1 hour (1 hour following hemorrhagic shock), and VPA 1 hour (1 hour following VPA treatment) from individual rats and the level of the candidate biomarker was determined by Western blot with anti-claudin-3 antibody. […]
# claudin-3 [3] = experiment: Western blot of intestinal claudin-3 protein in hemorrhagic shock model; format: in vivo; settings: rat intestinal lysate, 1, 6 and 24 hours after VPA treatment, vs HS 1 hour; n=3
# Experimental: as §1, with “experiment.” for “experiment. The mean arterial pressure (MAP) in animals that were subjected to hemorrhage dropped sharply after bleeding to approximately 20 mm Hg.”
# Claudin-3 is a TJ protein that has important roles in establishing epithelial and endothelial barriers. To find out whether HS and VPA treatment affect claudin-3 protein in TJ of epithelial cells, protein expression was analyzed in intestinal tissue obtained from sham, HS 1 hour (1 hour after hemorrhagic shock), and VPA-treated animals (1 hour, 6 hours, and 24 hours after treatment). […]
# claudin-3 mRNA = experiment: RT-PCR of intestinal claudin-3 mRNA in hemorrhagic shock model; format: in vivo; settings: rat intestine, 1, 6 and 24 hours; β-actin internal control, n=3
# Experimental: To assess whether gene expression of claudin-3 responds to HS and VPA treatment, the mRNA expression of rat intestines among the groups of sham, HS and VPA treatment was compared at 1, 6 and 24 hours using RT-PCR methods.
# hemorrhagic shock [4] = experiment: Survival in lethal model of hemorrhagic shock; format: in vivo, rat; settings: rats, 60% blood volume hemorrhage, VPA 300 mg/kg; none of the untreated animals survived
# Experimental: as §1, with “Hg. Blood was drawn at baseline (BL, before hemorrhage), hemorrhagic shock (HS), and 24 hours after VPA treatment from individual rats for protein biomarker screening and identification.” for “Hg.”
# hemorrhagic shock [5] = settings: rats; Shults et al. 2008, Li et al. 2008, WO 2007117272; cited from earlier work
structure (smiles),measurement,setting,value
"CCCC(CCC)C(=O)O [VPA, Valproic acid]",serum level of 22.7 kDa protein (SELDI-TOF MS peak intensity) vs HS,22.7 kDa protein,down-regulated in the VPA group sharply
same,"ratio of VPA to HS, claudin-3 peptide iTRAQ tag intensity in serum",claudin-3 [1],0.425
same,serum claudin-3 by Western blot,claudin-3 [2],no claudin-3 was detected
same,intestinal claudin-3 protein level by Western blot,claudin-3 [3],significantly attenuated the HS-induced reduction of claudin-3
same,intestinal claudin-3 mRNA expression by RT-PCR,claudin-3 mRNA,did not significantly change claudin-3 mRNA expression
same,survival after hemorrhagic shock,hemorrhagic shock [4],survived
same,survival after lethal HS (literature),hemorrhagic shock [5],improves survival after lethal HS in rats
